From patent US20070275403A1, “Diagnostic methods for determining treatment” (priority 2006, published 2007)
Several values for one entry are separate records, joined by “and”; a condition that tells them apart may be missing. Identical values can stand only once. Like-named read-outs stand apart in the source and are kept apart here.

Key:
NSCLC patients [1] = assay: Objective response (RECIST) of NSCLC patients in the gefitinib expanded access trial, by demographic and molecular subgroup; assay type: in vivo, human
Procedure: (§1) Specimens. […] Chart review and study analyses were approved by the RUMC Institutional Review Board. The diagnosis of NSCLC in the archival material was obtained from pathology reports and confirmed by histologic evaluation before further analysis. Age, gender, smoking status and disease grade were established from chart review and patient report at registration. Smoking status was defined by lifetime consumption of <100 cigarettes. Response was assessed according to RECIST criteria of measurable and non-measurable lesions. […] Progressive disease was defined by relapse within 70 days of treatment.
(§2) In Situ Hybridization. For copy number analyses by FISH, EGFR and centromere 7 (CEN7) probes were utilized to examine EGFR/cell, CEN7/cell and EGFR/CEN 7. A probe targeting α satellite repeat sequences near the centromere of chromosome 7 was used to indicate CEN 7 copy number (SpectrumGreen™ CEP® 7, Abbott Molecular Inc.). Specimen slides were prepared using either the Vysis Paraffin Pretreatment II or III kits (Abbott Molecular Inc.). The prepared specimen slides were hybridized with two-color FISH probe solutions (SpectrumOrange™ LSI® EGFR, Spectrum-Green CEP 7; Abbott Molecular Inc.) in a HYBrite™ automated co-denaturation oven (Abbott Molecular Inc.). The slides were placed on the oven surface and 10 μL probe solution was layered over the tissue section. A cover slip was applied over the probe solution and sealed to the slide with rubber cement. After denaturation at 73° C. for 5 minutes, the probe was hybridized at 37° C. for 16-18 hr. Following hybridization and removal of the rubber cement seal, the slides were placed in room-temperature 2×SSC (SSC=0.3 M NaCl, 15 mM sodium citrate), 0.3% Nonidet P40 (NP40) for 2-5 min to detach the cover slips. The slides were then immersed in 73° C. 2×SSC, 0.3% NP40 for 2 min to remove nonspecifically bound probe and then were allowed to dry in the dark. DAPI I antifade solution (Abbott Molecular Inc.) was applied to the specimen for visualization of the nuclei. […] Over-digested or under-digested specimens were reprocessed as described previously.
(§3) Typically, 30-90 (median 80) cells were enumerated in each specimen. The mean number of signals per cell was calculated by totaling the number of signals from each cell for EGFR and CEN 7, and dividing by the number of cells counted to provide EGFR/cell and CEN 7/cell, respectively. EGFR/cell was divided by CEN 7/cell signals per cell to yield EGFR/CEN7. Other FISH parameters used in developing selection criteria are defined as follows. The EGFR % gain or CEN 7% gain was calculated as the percentage of cells with more than two EGFR or CEN 7 signals, respectively. […] When a slide was counted multiple times, counts were combined and used for recalculating the ratios and % gain.
(§4) Optimal cutoff points for defining high ratios or high % gains were selected by first generating cutoffs from the mean minus 1.5 standard deviations to the mean plus 3.5 standard deviations, in 0.1 standard deviation increments, for each parameter (ratios and % gains), using the mean and standard deviations of the non responding patients. Each high and low ratios and % gains at each cutoff were compared with objective response and survival (greater than or less than 1 year survival) in contingency tables. Cutoffs with the lowest chi-square probabilities were selected for further analysis.
(§5) Immunohistochemistry. Paraffin sections (5 μm, freshly cut) were deparaffinized and rehydrated by standard technique. A microwave antigen retrieval method was then carried out in citrate buffer. The tissue was stained using a Ventana ES Histo-stainer (Ventana Medical Systems, Tucson, Ariz.) using supplied diaminobenzidine and avidin-biotin conjugate immunoperoxidase chemistry.
Immunostaining frequency of all tumor cells on each slide was estimated on a scale of 0 to 4 without knowledge of clinical patient data.

NSCLC [2] = conditions: phase III trial; cited from earlier work
NSCLC patients [3] = assay: Overall survival (Kaplan-Meier) of NSCLC patients in the gefitinib expanded access trial, by molecular subgroup; assay type: in vivo, human
Procedure: as §1, §2, §3, §4
Cutpoints were also assigned to indicate loss of chromosome 7, either monosomy or nullisomy.
as §5

NSCLC [4] = conditions: phase II trials; cited from earlier work
NSCLC [5] = conditions: patients previously screened for EGFR expression; cited from earlier work

SMILES: COc1cc2ncnc(Nc3ccc(F)c(Cl)c3)c2cc1OCCCN1CCOCC1 [gefitinib]
- Objective Response (partial and complete, RECIST), number of patients (%) (NSCLC patients [1]; 250 mg daily gefitinib, Total, 81 patients): 12 (15) %
- Objective Response, number of patients (%) (NSCLC patients [1]; 250 mg daily, Age <60 years): 8 (13) %
- Objective Response, number of patients (%) (NSCLC patients [1]; 250 mg daily, Age ≧60 years): 4 (21) %
- Objective Response, number of patients (%) (NSCLC patients [1]; 250 mg daily, Gender Female): 7 (16) %
- Objective Response, number of patients (%) (NSCLC patients [1]; 250 mg daily, Gender Male): 5 (14) %
- Objective Response, number of patients (%) (NSCLC patients [1]; 250 mg daily, Histopathological subtype Bronchoalveolar, adenocarcinoma): 10 (18) %
- Objective Response, number of patients (%) (NSCLC patients [1]; 250 mg daily, Histopathological subtype Other): 2 (8) %
- Objective Response, number of patients (%) (NSCLC patients [1]; 250 mg daily, Never smoked): 7 (58) %
- Objective Response, number of patients (%) (NSCLC patients [1]; 250 mg daily, Performance status 0 to 1): 6 (13) %
- Objective Response, number of patients (%) (NSCLC patients [1]; 250 mg daily, Performance status 2 to 4): 6 (18) %
- Objective Response, number of patients (%) (NSCLC patients [1]; 250 mg daily, Prior chemotherapy None): 2 (14) %
- Objective Response, number of patients (%) (NSCLC patients [1]; 250 mg daily, Prior chemotherapy One): 7 (18) %
- Objective Response, number of patients (%) (NSCLC patients [1]; 250 mg daily, Prior chemotherapy Two or more): 3 (5) %
- Objective Response, number of patients (%) (NSCLC patients [1]; 250 mg daily, Smoking status Yes): 5 (7) %
- Overall response (NSCLC patients [1]; 81 patients, 250 mg daily gefitinib): 15%
- Objective Response, number of patients (%) (NSCLC patients [1]; CEN 7/cell <3.6): 7 (11) %
- Objective Response, number of patients (%) (NSCLC patients [1]; CEN 7/cell <3.8): 7 (11) %
- Objective Response, number of patients (%) (NSCLC patients [1]; CEN 7/cell <3.8 and >2.0 (“normal”)): 7 (13) %
- Objective Response, number of patients (%) (NSCLC patients [1]; CEN 7/cell <4): 7 (11) %
- Objective Response, number of patients (%) (NSCLC patients [1]; CEN 7/cell >3.8 or <2.0 (aneusomy)): 5 (19) %
- Objective Response, number of patients (%) (NSCLC patients [1]; CEN 7/cell ≧3.6): 5 (28) %
- Objective Response, number of patients (%) (NSCLC patients [1]; CEN 7/cell ≧3.8): 5 (31) %
- Objective Response, number of patients (%) (NSCLC patients [1]; CEN 7/cell ≧4): 5 (36) %
- Objective Response, number of patients (%) (NSCLC patients [1]; EGFR % gain <75%): 5 (9) %
- Objective Response, number of patients (%) (NSCLC patients [1]; EGFR % gain ≧75%): 7 (29) %
- Objective Response, number of patients (%) (NSCLC patients [1]; EGFR IHC 0): 3 (9) %
- Objective Response, number of patients (%) (NSCLC patients [1]; EGFR IHC 1+ to 4+): 9 (20) %
- Objective Response, number of patients (%) (NSCLC patients [1]; EGFR/CEN 7 % gain <34%): 3 (7) %
- Objective Response, number of patients (%) (NSCLC patients [1]; EGFR/CEN 7 % gain ≧34%): 9 (23) %
- Objective Response, number of patients (%) (NSCLC patients [1]; EGFR/CEN 7 <1): 1 (5) %
- Objective Response, number of patients (%) (NSCLC patients [1]; EGFR/CEN 7 ≧1): 11 (19) %
- Objective Response, number of patients (%) (NSCLC patients [1]; EGFR/cell ≦6 (FISH)): 7 (10) %
- Objective Response, number of patients (%) (NSCLC patients [1]; EGFR/cell ≧6 (FISH)): 5 (46) %
- Objective Response, number of patients (%) (NSCLC patients [1]; PTEN IHC Absent, 73 patients analyzed): 3 (7) %
- Objective Response, number of patients (%) (NSCLC patients [1]; PTEN IHC Present (1+ to 4+), 73 patients analyzed): 8 (30) %
- patients with complete response (NSCLC patients [1]; of 81 patients): 2 patients
- patients with partial response (NSCLC patients [1]; of 81 patients): 10 patients
- patients with stable disease (NSCLC patients [1]; of 81 patients): Thirty-six
- Objective Response, number of patients (%) (NSCLC patients [1]; pAKT IHC Absent, 73 patients analyzed): 4 (10) %
- Objective Response, number of patients (%) (NSCLC patients [1]; pAKT IHC Present (1+ to 4+), 73 patients analyzed): 7 (21) %
- response rate (NSCLC [2]): 8-13%
- survival benefit (NSCLC [2]): no significant survival benefit
- Median Survival (NSCLC patients [3]; CEN 7 % ≧4 copies <52%): 6.9 Months
- Median Survival (NSCLC patients [3]; CEN7 % ≧4 copies ≧52%, pAKT+): 39.4 months
- Median Survival (NSCLC patients [3]; CEN7 % ≧4 copies, pAKT: Any negative): 5.9 months
- Median Survival (NSCLC patients [3]; CEN 7/cell <3.6 (non-polysomy)): 6.0 Months
- Median Survival (NSCLC patients [3]; CEN 7/cell <3.6 and >2.0 (“normal”)): 5.8 Months
- Median Survival (NSCLC patients [3]; CEN 7/cell >3.6 or <2.0 (aneusomy)): 15.3 Months
- Median Survival (NSCLC patients [3]; CEN 7/cell ≧3.6 (polysomy)): 16.2 Months
- Median Survival (NSCLC patients [3]; CEN 7/cell, pAKT: Any negative): 5.9 months
- Median Survival (NSCLC patients [3]; CEN 7 ≧3.6 (polysomy), pAKT+): 24.5 months
- Median Survival (NSCLC patients [3]; EGFR % gain <75%): 7.9 Months
- Median Survival (NSCLC patients [3]; EGFR % gain ≧75%): 9.4 Months
- Median Survival (NSCLC patients [3]; EGFR % gain ≧75% cells and pAKT+): 24.5 months
- Median Survival (NSCLC patients [3]; EGFR % gain, pAKT: Any negative): 6.6 months
- Median Survival (NSCLC patients [3]; EGFR Expression, IHC Not detected): 8.5 Months
- Median Survival (NSCLC patients [3]; EGFR Expression, IHC Present): 7.1 Months
- Median Survival (NSCLC patients [3]; EGFR/CEN 7 % gain <34%): 6.0 Months
- Median Survival (NSCLC patients [3]; EGFR/CEN 7 % gain ≧3.4%): 10.3 Months
- Median Survival (NSCLC patients [3]; EGFR/CEN7 % gain, PTEN: Any negative): 6.6 months
- Median Survival (NSCLC patients [3]; PTEN Expression, IHC Not detected): 5.9 Months
- Median Survival (NSCLC patients [3]; PTEN Expression, IHC Present): 9.3 Months
- Median Survival (NSCLC patients [3]; pAKT Expression, IHC Not detected): 5.8 Months
- Median Survival (NSCLC patients [3]; pAKT Expression, IHC Present): 10.5 Months
- response rate (NSCLC [4]): 18.4% and 11.8%

SMILES: C#Cc1cccc(Nc2ncnc3cc(OCCOC)c(OCCOC)cc23)c1 [Erlotinib, erlotinib]
- response rate (NSCLC [5]): 12.3%
